Results on nine molecules are retold here after patent US6017890A, “Azole peptidomimetics as thrombin receptor antagonists” (Ortho-McNeil Pharmaceutical, Inc., priority 1999, dated 2000).

Structures are written as SMILES. pIC50: −log10 of the molar value. Starred links: 1 amine or outer side, 2 acyl side, 3 side chain; linkers in the order of their positions; H or OH if unused. Non-standard residues stand in square brackets, D forms with d. Residues, ends and D or L forms follow the SMILES beside them. Phe(4-F)ψ(2,4-Thz) = O=C(c1csc([C@H](Cc2ccc(F)cc2)N[*:1])n1)[*:2]; Cha = N[C@@H](CC1CCCCC1)C(=O)O

The pIC50 is the negative decadic logarithm of the IC50, by convention in mol/L.

One test deals with T1, thrombin receptor (Homo sapiens, UniProt P25116).
T1 construct: CHRF membranes (Jones, Biochim. Biophys. Acta 1992, 1136, 272) are thawed from -70° C; endogenous in cells; host or cells: CHRF cell membranes
T1 sequence (P25116 22-425): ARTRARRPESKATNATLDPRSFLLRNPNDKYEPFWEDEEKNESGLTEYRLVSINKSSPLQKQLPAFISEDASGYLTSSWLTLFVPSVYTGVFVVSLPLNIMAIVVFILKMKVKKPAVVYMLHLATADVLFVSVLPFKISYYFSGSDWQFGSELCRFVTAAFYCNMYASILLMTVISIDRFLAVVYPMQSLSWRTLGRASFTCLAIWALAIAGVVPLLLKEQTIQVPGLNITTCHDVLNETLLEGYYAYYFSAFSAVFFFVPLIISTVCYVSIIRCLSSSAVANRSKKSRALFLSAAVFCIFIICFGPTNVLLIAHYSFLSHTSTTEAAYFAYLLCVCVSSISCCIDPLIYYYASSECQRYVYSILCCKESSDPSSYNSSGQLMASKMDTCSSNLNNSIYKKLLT
Description: In vitro thrombin receptor binding assay (displacement of tritiated 721-40 from CHRF membranes). The settings on record: tritiated 721-40 (Ser-pFPhe-Har-Leu-Har-Lys-Tyr-NH2) radioligand, read-out: Thr Receptor Binding IC50. As for the experimental part:
CHRF membranes (Jones, Biochim. Biophys. Acta 1992, 1136, 272) are thawed from -70° C., centrifuged at maximum speed for 5 min, washed twice with binding buffer (50 mM HEPES containing 5 mM MgCl2 and 0.1% BSA), and re-suspended in binding buffer ([…]). 100 μl of membranes are added to the 24-Wallac plates and delivered to the Tomtech apparatus. In a typical experiment, 6 μl of samples (from a 125 μg/mL intermediary plate, 20% DMSO) and 44 μl buffer are delivered to the plates (final conc. of compounds is 3.7 μg/mL, 0.6% DMSO). Similarly, 6 μl 20% DMSO and 44 μl buffer are delivered to both column 1 (NSB) and column 12 (TB). 10 μl Ser-pFPhe-Har-Leu-Har-Lys-Tyr-NH2 [SEQ. ID. NO:2] (721-40; 500 μM in deionized water) is added to column 1. 50 μl tritiated 721-40 (specific activity 46 Ci/mmol) is added to all the wells. The plates are mixed well for 20 seconds, incubated for 30 min, and then harvested with 10 mM HEPES/138 mM NaCl using the Skatron harvester. The filters (GF/C Brandel FPXLR 296) are presoaked 3 h in 0.5% polyethylenimine in HEPES/0.1 M N-acetylglucosamine) are set in saran wrap and dried for 3 min in the microwave, and placed in sample bags (Wallac 1450-432). 4.5 mL scintillation fluid (Wallac, Betaplate Scint 1205-440) is added. The bags are sealed, placed in filter cassettes (Wallac 1450-104), and analyzed on the microbeta counter.
(§1) The table contains IC50 values (μM) of the compounds in a thrombin receptor binding assay, and IC50 values (μM) against platelet aggregation stimulated by two agonists, thrombin or SFLLRN-NH2 [SEQ. ID. NO:1] (TRAP).

Test [1] addresses T2, gel-filtered platelets (SFLLRN-NH2 (TRAP)-stimulated aggregation) (Homo sapiens, UniProt P25116).
T2 sequence (P25116 42-425): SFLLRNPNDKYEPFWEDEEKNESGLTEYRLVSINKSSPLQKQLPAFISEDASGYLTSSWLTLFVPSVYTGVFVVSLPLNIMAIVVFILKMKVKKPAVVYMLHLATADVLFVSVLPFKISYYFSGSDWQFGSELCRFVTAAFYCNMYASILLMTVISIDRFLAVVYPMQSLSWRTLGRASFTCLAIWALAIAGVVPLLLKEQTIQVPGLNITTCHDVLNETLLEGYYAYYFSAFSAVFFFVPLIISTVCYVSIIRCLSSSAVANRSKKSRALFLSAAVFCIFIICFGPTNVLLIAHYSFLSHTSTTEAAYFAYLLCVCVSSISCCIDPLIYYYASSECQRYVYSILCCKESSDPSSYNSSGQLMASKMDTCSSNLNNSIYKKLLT
Description: In vitro inhibition of SFLLRN-NH2 (TRAP)-induced gel-filtered platelet aggregation. The following applies: agonist SFLLRN-NH2 (TRAP). Format: cell-based. Here is the method:
The percentage of platelet aggregation is calculated as an increase in light transmission of compound-treated platelet concentrate vs. control-treated platelet concentrate. Human blood is obtained from drug free, normal donors in tubes containing 0.13 M sodium citrate. Platelet rich plasma (PRP) is collected by centrifugation of whole blood at 200×g for 10 min at 25° C. The PRP (5 mL) is gel filtered through Sepharose 2B (bed volume 50 mL), and the platelet count is adjusted to 2×10^7 platelets per sample. The following constituents are added to a siliconized cuvette: concentrated platelet filtrate and Tyrode's buffer (0.14 M NaCl, 0.0027 M KCl, 0.012 M NaHCO3, 0.76 mM Na2 HPO4, 0.0055 M glucose, 2 mg/mL BSA and 5.0 mM HEPES@pH 7.4) in an amount equal to 350 μl, 50 μl of 20 mM calcium and 50 μl of the test compound. Aggregation is monitored in a BIODATA aggregometer for the 3 min following the addition of agonist (thrombin 50 μl of 1 unit/mL).
as §1

Turning to `CNCC(=O)N[C@@H](Cc1ccc(F)cc1)c1nc(C(=O)N[C@@H](CC2CCCCC2)C(=O)N[C@@H](CCCN=C(N)N)C(=O)NCc2ccccc2)co1` [Compound 1, 2-[1(S)-Sarcosineamido-2-(4-fluorophenyl)ethyl]oxazole-4-carboxy-cyclohexylalanyl-arginine benzylamide], the pIC50 at thrombin receptor was 5.70; in test [1] it was 5.00. Turning to `N=C(N)NCCC[C@H](NC(=O)[C@H](CC1CCCCC1)NC(=O)c1coc([C@H](Cc2ccc(F)cc2)NC(=O)CCN)n1)C(=O)NCc1ccccc1` [Compound 2, 2-[1(S)-β-Alanineamido-2-(4-fluorophenyl)ethyl]oxazole-4-carboxy-cyclohexylalanyl-arginine benzylamide], the figures for the pIC50 (at thrombin receptor; in test [1]) were 5.09 and 5.15, respectively. Taken in the same sequence, the figures for `CNCC(=O)N[C@@H](Cc1ccc(F)cc1)c1nc(C(=O)N[C@@H](CC2CCCCC2)C(=O)N[C@@H](CCCN=C(N)N)C(=O)NCCc2ccccc2)cs1` [Compound 3, 2-[1(S)-Sarcosineamido-2-(4-fluorophenyl)ethyl]thiazole-4-carboxy-cyclohexylalanyl-arginine phenethylamide] were 4.46 and 6.22. As to `CC[C@H](C)[C@H](N)C(=O)N[C@@H](Cc1ccc(F)cc1)c1nc(C(=O)N[C@@H](CC2CCCCC2)C(=O)N[C@@H](CCCN=C(N)N)C(=O)N[C@@H](Cc2ccccc2)C(N)=O)cs1` [Compound 5, 2-[1(S)-Isoleucineamido-2-(4-fluorophenyl)ethyl]thiazole-4-carboxy-cyclohexylalanyl-arginyl-phenylalanineamide] (H-I[Phe(4-F)ψ(2,4-Thz)][Cha]RF-NH2), the figures for the pIC50 (at thrombin receptor; in test [1]) were 5.46 and 5.05, respectively. Take `CNCC(=O)N[C@@H](Cc1ccc(F)cc1)c1nc(C(=O)N[C@@H](CCCCN)C(=O)N[C@@H](CCCNC(=N)N)C(=O)NCCc2ccccc2)cs1` [Compound 6, 2-[1(S)-Sarcosineamido-2-(4-fluorophenyl)ethyl]thiazole-4-carboxy-lysyl-arginine phenethylamide]: the pIC50 was 4.81 at thrombin receptor and 5.40 in test [1]. Take `CNCC(=O)N[C@@H](Cc1ccc(F)cc1)c1nc(C(=O)N[C@@H](CC2CCCCC2)C(=O)N[C@@H](CCCNC(=N)N)C(=O)NCc2ccccc2)c(C)o1` [Compound 7, 2-[1(S)-Sarcosineamido-2-(4-fluorophenyl)ethyl]-5-methyloxazole-4-carboxy-cyclohexylalanyl-arginine benzylamide]: the pIC50 on thrombin receptor was 5.15; in test [1], 4.66. The matching figures for `Cc1oc([C@H](Cc2ccc(F)cc2)NC(=O)[C@@H](N)Cc2cn(Cc3ccccc3)cn2)nc1C(=O)N[C@@H](CC1CCCCC1)C(=O)N[C@@H](CCCNC(=N)N)C(=O)NCc1ccccc1` [Compound 8, 2-[1(S)-N(tau)-Benzyl-histidineamido-2-(4-fluorophenyl)ethyl]-5-methyloxazole-4-carboxy-cyclohexylalanyl-arginine benzylamide]: 4.52 and 5.30. Turning to `CC(=O)N[C@@H](Cc1ccc(F)cc1)c1nc(C(=O)N[C@@H](CC2CCCCC2)C(=O)N[C@@H](CCCNC(=N)N)C(=O)NCc2ccccc2)c(C)o1` [Compound 9, 2-[1(S)-Acetamido-2-(4-fluorophenyl)ethyl]-5-methyloxazole-4-carboxy-cyclohexylalanyl-arginine benzylamide], the figures for the pIC50 (on thrombin receptor; in test [1]) were 4.51 and 4.96, respectively.

The molecule `Cc1oc([C@H](Cc2ccc(F)cc2)N(C)C)nc1C(=O)N[C@@H](CC1CCCCC1)C(=O)N[C@@H](CCCNC(=N)N)C(=O)NCc1ccccc1` [Compound 10, 2-[1(S)-N,N-Dimethyl-2-(4-fluorophenyl)ethyl]-5-methyloxazole-4-carboxy-cyclohexylalanyl-arginine benzylamide] gave a pIC50 in test [1] of 4.77.
